Patent publication US20110263650A1 (priority 2007, published 2011)
Converted amounts (≈) assume the structure as drawn. Like-named read-outs stand apart in the source and are kept apart here.

Tests used:
[1] = tested on: KB-3-1 human cervix carcinoma (DSMZ ACC 158); experiment: Growth inhibition assay (MTT), KB-3-1; format: cell-based; conditions: KB 3-1, 120 h, read-out: IC50 KB-3-1
[2] = tested on: L929 mouse fibroblasts (DSMZ ACC 2); experiment: Growth inhibition assay (MTT), L929; conditions: for IC50: Mus musculus; for Cytotoxicity / activity in words: Tables 1 and 2, cell line not given
[3] = tested on: SW-480 human colon adenocarcinoma (ATCC CCL-228); experiment: Growth inhibition assay (MTT), SW-480; format: cell-based; conditions: for IC50: SW480, 120 h, read-out: IC50 SW-480; for Activity in SW-480 compared with tubulysin D, in words: colon cancer cell line SW-480
[4] = L929, 120 h, read-out: IC50 L929

With CC[C@H](C)[C@H](N=[N+]=[N-])C(=O)N(COC(=O)CC(C)C)[C@H](C[C@@H](OC(C)=O)c1nc(C(=O)N[C@@H](Cc2ccccc2)C[C@H](C)C(=O)O)cs1)C(C)C [Analogue 8, 4-[(2-{1-acetoxy-3-[(2-azido-3-metlzyl-pentanoyl)-(3-methylbutyryloxymethyl)-amino]-4-methyl-pentyl}-thiazole-4-carbonyl)-amino]-2-methyl-5-phenyl-pentanoic acid] the IC50 ([1]; Homo sapiens) was 40 ng/mL (≈ 54.9 nM), the IC50 [2, 4] was 45 ng/mL (≈ 61.7 nM) and the “Cytotoxicity / activity in words” value [2] was “drastic decrease in activity”. It also gave an IC50 ([3]; Homo sapiens) of 8.8 ng/mL (≈ 12.1 nM).
With CC[C@H](C)[C@H](NC(=O)CN(C)C)C(=O)N(COC(=O)CC(C)C)[C@H](C[C@@H](OC(C)=O)c1nc(C(=O)N[C@@H](Cc2ccccc2)C[C@H](C)C(=O)O)cs1)C(C)C [Analogue 6, 4-[(2-{1-acetoxy-3-[[2-(2-dimethylamino-cetylamino)-3-methylpentanoyl]-(3-methyl-butyryloxymethyl)-amino]-4-methyl-pentyl}-thiazole-4-carbonyl)-amino]-2-methyl-5-phenyl-pentanoic acid] the IC50 ([1]; Homo sapiens) was 0.029 ng/mL (≈ 0.0368 nM), the IC50 [2, 4] was 0.04 ng/mL (≈ 0.0508 nM) and the “Cytotoxicity / activity in words” value [2] was “essentially equipotent with tubulysin D”. The IC50 ([3]; Homo sapiens) was 0.01 ng/mL (≈ 0.0127 nM) and the “Activity in SW-480 compared with tubulysin D, in words” value [3] was “more active than tubulysin D”.
For CC[C@H](C)[C@H](NC(=O)[C@H]1CCCCN1C)C(=O)N(COC(=O)CC(C)C)[C@H](C[C@@H](OC(C)=O)c1nc(C(=O)O)cs1)C(C)C [Analogue 5, 2-[1-acetoxy-4-methyl-3-((3-methyl-butyryloxymethyl)-{3-methyl-2-[(1-methyl-piperidine-2-carbonyl)-amino]-pentanoyl}-amino)-pentyl]-thiazole-4-carboxylic acid], the IC50 ([1]; Homo sapiens) was 1.5 ng/mL (≈ 2.35 nM), the IC50 [2, 4] was 2.2 ng/mL (≈ 3.44 nM) and the “Cytotoxicity / activity in words” value [2] was “maintained good activity”. For the same compound, the IC50 ([3]; Homo sapiens) was 0.35 ng/mL (≈ 0.548 nM).
CC[C@H](C)[C@H](NC(=O)[C@H]1CCCCN1C)C(=O)N(COC(=O)CC(C)C)[C@H](C[C@@H](OC(C)=O)c1nc(C(=O)NCCCC(=O)O)cs1)C(C)C [Analogue 3, 3-Methyl-butyric acid ((1-{2-acetoxy-2-[4-(3-carboxy-propylcarbamoyl)-thiazol-2-yl]-ethyl)-2-methyl-propyl)-{3-methyl-2-[(1-methyl-piperidine-2-carbonyl)-amino]-pentanoyl}-amino)-methyl ester] gave an IC50 ([1]; Homo sapiens) of 1.8 ng/mL (≈ 2.49 nM), an IC50 [2, 4] of 3.5 ng/mL (≈ 4.83 nM) and an IC50 ([3]; Homo sapiens) of 0.91 ng/mL (≈ 1.26 nM).
CC[C@H](C)[C@H](NC(=O)[C@H]1CCCCN1C)C(=O)N(C)[C@H](C[C@@H](OC(C)=O)c1nc(C(=O)N[C@@H](Cc2ccccc2)C[C@H](C)C(=O)O)cs1)C(C)C (stereo in doubt) [Analogue 10, 4-({2-[1-Acetoxy-4-methyl-3-(methyl-{3-methyl-2-[(1-methylpiperidine-2-carbonyl)-amino]-pentanoyl}-amino)-pentyl]-thiazole-4-carbonyl}-amino)-2-methyl-5-phenyl-pentanoic acid] was tested, and the IC50 ([1]; Homo sapiens) was 0.13 ng/mL (≈ 0.179 nM), the IC50 [2, 4] was 0.23 ng/mL (≈ 0.316 nM) and the “Fold less active than tubulysin D” value ([2]; cytotoxicity relative to tubulysin D) was 4 fold. For the same compound, the IC50 ([3]; Homo sapiens) was 0.016 ng/mL (≈ 0.022 nM) and the “Activity in SW-480 compared with tubulysin D, in words” value [3] was “more active than tubulysin D”.
Compound CC[C@H](C)[C@H](NC(=O)[C@H]1CCCCN1C)C(=O)N(COC(=O)CC(C)C)[C@H](C[C@@H](OC(C)=O)c1nc(C(=O)NCCc2ccccc2)cs1)C(C)C [Analogue 2, 3-methyl-butyric acid ({1-[2-acetoxy-2-(4-phenethylcarbamoylthiazol-2-yl)-ethyl]-2-methyl-propyl}-{3-methyl-2-[(1-methyl-piperidine-2-carbonyl)-amino]-pentanoyl}-amino)-methyl ester] has an IC50 ([1]; Homo sapiens) of 0.25 ng/mL (≈ 0.337 nM), an IC50 [2, 4] of 0.24 ng/mL (≈ 0.323 nM) and an IC50 ([3]; Homo sapiens) of 0.3 ng/mL (≈ 0.404 nM).
CC[C@H](C)[C@H](NC(=O)[C@H]1CCCCN1C)C(=O)N(COC(=O)CC(C)C)[C@H](C[C@@H](OC(C)=O)c1nc(C(=O)NC)cs1)C(C)C [Analogue 4, 3-methyl-butyric acid ({1-[2-acetoxy-2-(4-methylcarbamoyl-thiazol-2-yl) -ethyl]-2-methyl-propyl}-{3-methyl-2-[(1-methyl-piperidine-2-carbonyl)-amino]pentanoyl}-amino)-methyl ester] was tested, and the IC50 ([1]; Homo sapiens) was 0.22 ng/mL (≈ 0.337 nM), the IC50 [2, 4] was 0.3 ng/mL (≈ 0.46 nM) and the “Cytotoxicity / activity in words” value [2] was “maintained good activity”. For the same compound, the IC50 ([3]; Homo sapiens) was 0.35 ng/mL (≈ 0.537 nM).
CC[C@H](C)[C@H](NC(=O)[C@H]1CCCCN1C)C(=O)N(COC(=O)CC(C)C)[C@H](C[C@@H](OC(C)=O)c1nc(C(=O)N[C@@H](Cc2ccccc2)C[C@H](C)C(=O)O)cs1)C(C)C [Analogue 1, Tubulysin D, reference compound] showed an IC50 ([1]; human cervix carcinoma, MTT after 5 days) of 0.07 ng/mL (≈ 0.0845 nM), an IC50 [2, 4] of 0.056 ng/mL (≈ 0.0676 nM) and an IC50 ([3]; human colon adenocarcinoma, MTT after 5 days) of 0.022 ng/mL (≈ 0.0266 nM).
In the case of CC[C@H](C)[C@H](NC(C)=O)C(=O)N(COC(=O)CC(C)C)[C@H](C[C@@H](OC(C)=O)c1nc(C(=O)N[C@@H](Cc2ccccc2)C[C@H](C)C(=O)O)cs1)C(C)C [Analogue 7, 4-[(2-{1-acetoxy-3-[(2-acetylamino-3-methyl-pentanoyl)-(3-methyl-butyryloxymethyl)-amino]-4-methyl-pentyl}-thiazole-4-carbonyl)-amino]-2-methyl-5-phenyl-pentanoic acid], the IC50 ([1]; Homo sapiens) is reported as 80 ng/mL (≈ 107 nM), the IC50 [2, 4] is reported as 120 ng/mL (≈ 161 nM) and the “Cytotoxicity / activity in words” value [2] is reported as “drastic decrease in activity”. It also gave an IC50 ([3]; Homo sapiens) of 15 ng/mL (≈ 20.1 nM).
In the case of CC[C@H](C)[C@H](NC(=O)[C@H]1CCCCN1C)C(=O)N(C)[C@H](C[C@@H](OC(C)=O)c1nc(C(=O)NC)cs1)C(C)C (stereo in doubt) [Analogue 11, acetic acid 4-methyl-1-(4-methylcarbamoyl-thiazol-2-yl)-3-(methyl-{3-methyl-2-[(1-methyl-piperidine-2-carbonyl)-amino]-pentanoyl}-amino)-pentyl ester], the IC50 ([1]; Homo sapiens) is reported as 1.2 ng/mL (≈ 2.17 nM), the IC50 [2, 4] is reported as 1.7 ng/mL (≈ 3.08 nM) and the IC50 ([2]; L929, read-out: Cytotoxicity stated in text) is reported as 2 ng/mL (≈ 3.62 nM). The IC50 ([3]; Homo sapiens) was 0.5 ng/mL (≈ 0.906 nM).
